According to US20090312407A1, “Synthetic Flavonoids and Pharmaceutical Compositions and Therapeutic Methods of Treatment of Cancer and other Pathologies” (priority 2007, published 2009):
Where “and” joins values, the source holds several entries; their conditions need not be identical. Equal values may be shown once. Read-outs that look alike come from different tables or passages of the source.

Legend:
benzodiazepine receptor = details: cited from earlier work
[1] = system: multidrug resistant cells; details: collateral sensitivity; cited from earlier work
[2] = attributed to 3-OH group; cited from earlier work
H-9 cells = experiment: Cytotoxicity on H-9 cells; format: cell-based; details: H-9 cells; same conditions as AZT
From the text: (§1) The purified and identified analogs were subjected to in vitro biological testing.
These three congeners were further evaluated in H9 and PC3 cells. AZT was employed as a positive control in all of these experiments.

MCF-7 cells = experiment: Cytotoxicity on MCF-7 cells; format: cell-based; details: for Cells (×10^4) Mean / Cells (×10^4): Table 17, 12-12 to 12-16/2005; for % Inhibition / inhibition at 1 µg/mL / inhibition at 5 µg/mL / inhibition at 10 µg/mL / inhibition at 50 µg/mL: vs 2% DMSO, Table 17; for inhibition at 1 µg/mL / inhibition at 5 µg/mL / inhibition at 10 µg/mL / inhibition at 50 µg/mL: Homo sapiens; for inhibition at 1 µg/mL: MCF7, 1 μg/ml; for inhibition at 5 µg/mL: MCF7, 5 μg/ml; for inhibition at 10 µg/mL: MCF7, 10 μg/ml; for inhibition at 50 µg/mL: MCF7, 50 μg/ml
PC-3 cells = experiment: Cytotoxicity on PC-3 cells; format: cell-based; details: PC-3 cells; same conditions as AZT
From the text: as §1

[3] = single count, read-out: % Inhibition

Compound: O=c1cc(-c2ccccc2)oc2ccc(Br)cc12 [6-bromoflavone]
- activity as benzodiazepine receptor ligand compared to diazepam (benzodiazepine receptor): close or higher than that of diazepam

Compound: O=c1cc(-c2ccccc2)oc2ccc3ccccc3c12 [β-naphthoflavone]
- toxicity to multidrug resistant cells vs drug-sensitive counterparts [1]: considerably more toxic to multidrug resistant cells than to their drug-sensitive counterparts

Compound: O=c1c(O)c(-c2ccc(O)c(O)c2)oc2cc(O)cc(O)c12 [quercetin]
- mutagenic properties [2]: some mutagenic properties

Compound: O=c1cc(-c2cccc([N+](=O)[O-])c2)oc2ccc(Br)cc12 [6-bromo-3′-nitroflavone]
- activity as benzodiazepine receptor ligand compared to diazepam (benzodiazepine receptor): close or higher than that of diazepam

Compound: COc1cc(C=CC(=O)c2cc(C)cc([N+](=O)[O-])c2O)cc(OC)c1OC (stereo in doubt) [CHNM 3M]
- inhibitory activity / growth inhibition compared to AZT (H-9 cells): much superior
- Cells (×10^4) Mean (MCF-7 cells; 1 μg/ml): 44.50 ×10^4
- % Inhibition (MCF-7 cells; 1 μg/ml, single count): 11.62%
- Cells (×10^4) (MCF-7 cells; 1 μg/ml, single count): 44.3 ×10^4 and 45.0 ×10^4
- Cells (×10^4) Mean (MCF-7 cells; 5 μg/ml): 24.75 ×10^4
- % Inhibition (MCF-7 cells; 5 μg/ml, single count): 52.86% and 51.88%
- Cells (×10^4) (MCF-7 cells; 5 μg/ml, single count): 25.8 ×10^4 and 24.0 ×10^4 and 24.5 ×10^4
- Cells (×10^4) Mean (MCF-7 cells; 10 μg/ml): 4.92 ×10^4
- % Inhibition (MCF-7 cells; 10 μg/ml, single count): 90.67%
- Cells (×10^4) (MCF-7 cells; 10 μg/ml, single count): 5.0 ×10^4 and 4.8 ×10^4
- Cells (×10^4) Mean (MCF-7 cells; 50 μg/ml): 1.75 ×10^4
- % Inhibition (MCF-7 cells; 50 μg/ml, single count): 96.07% and 97.05%
- Cells (×10^4) (MCF-7 cells; 50 μg/ml, single count): 1.8 ×10^4 and 2.0 ×10^4 and 1.5 ×10^4
- inhibition at 1 µg/mL (MCF-7 cells; [3]): 13.1%
- inhibition at 1 µg/mL (MCF-7 cells; read-out: % Inhibition Mean): 12.6%
- inhibition at 5 µg/mL (MCF-7 cells; [3]): 49.4%
- inhibition at 5 µg/mL (MCF-7 cells; read-out: % Inhibition Mean): 51.4%
- inhibition at 10 µg/mL (MCF-7 cells; [3]): 90.2%
- inhibition at 10 µg/mL (MCF-7 cells; read-out: % Inhibition Mean): 90.3%
- inhibition at 50 µg/mL (MCF-7 cells; [3]): 96.6%
- inhibition at 50 µg/mL (MCF-7 cells; read-out: % Inhibition Mean): 96.6%
- inhibitory activity / growth inhibition compared to AZT (MCF-7 cells; MCF-7 cells, same conditions as AZT): much superior
- cytotoxic activities on MCF-7 cells (MCF-7 cells; different drug concentrations): good cytotoxic activities
- inhibitory activity / growth inhibition compared to AZT (PC-3 cells): much superior
